Results on one molecule are retold here after patent US20100292186A1, “Pharmaceutical Composition for Treatment or Prevention of Liver Cancer” (National University Corporation Nagoya University, priority 2006, published 2010).

Data set [1] relates to human hepatocellular cancer cell lines (Hep-3B, Hep-G2, Huh-7 and the like). As to conditions: literature; cited from earlier work.
A further data set concerns hepatocellular cancer. The conditions noted are these: administration after treatment of hepatocellular cancer; cited from earlier work.
For data set [2] the following is noted: cited from earlier work.
The test system of data set [3] is human hepatocellular cancer cell line (Hep-3B, Hep-G2, Huh-7 and Alexander). In words: MTT assay, growth inhibition of hepatocellular cancer cell lines. It counts as cell-based. The method, then: Four species of human hepatocellular cancer cell line (Hep-3B. Hep-G2, Huh-7 and Alexander) were cultured under humidified atmosphere of 95% air and 5% carbon dioxide, in a Dulbecco Modified Eagle culture medium (DMEM: SIGMA CHEMICAL Co., St. Louis USA) supplemented with 10% fetal bovine serum (FBS), 100 U/ml penicillin G sulphate and 100 μg/ml streptomycin sulphate.
For lecithin (other name: phosphatidylcholine (hereinafter, referred to as simply “PC”), soybean lecithin with a purity of approximately 96.5% was used, and menatetrenone and Kaytwo N (Kaytwo N: registered trade mark; manufactured by Eisai Co. Ltd.) were provided by Eisai Co. Ltd. For the study, cells (Hep-G2: 1×10^4; others: 1×10^3) in a 96-well microtiter plate were cultured one day prior to beginning the experiments. In the MTT assay method, cells in 96-well microtiter were cultured several days (2 to 4 days) in the presence of PC (1×10^−8 to 1×10^−4M) and menatetrenone (1×10^−7 to 1×10^−4 M) or Kaytwo N (registered trade mark; manufactured by Eisai Co. Ltd.) (regarding menatetrenone: […] to 1×10^−4M). […] The survival rate was analyzed by the MTT assay method using the Tetra Color One Kit. […]
Significant differences were evaluated by the Mann-Whitney U test according to StatView 5.0 (Abacus Concepts, Berkley, Calif.). […]
For orientation: Tetrazolium assays rely on reduction of a dye to a coloured formazan, in cell work by metabolically active cells.

Molecules are shown by their SMILES.

`CC(C)=CCC/C(C)=C/CC/C(C)=C/CC/C(C)=C/CC1=C(C)C(=O)c2ccccc2C1=O` [menatetrenone, 2-methyl-3-tetraprenyl-1,4-naphthoquinone]: in data set [1], the “growth of human hepatocellular cancer cell lines” value is “inhibitory effect”. Also, in the data set on hepatocellular cancer, the “occurrence of PVI (portal venous invasion)” value is “could be suppressed” and the “prognosis / recurrence of hepatocellular cancer” value is given as “prognosis could be improved by suppressing the recurrence of hepatocellular cancer”. Moreover, the solubility in water result in data set [2] was “almost insoluble in water”. Moreover, in data set [3] (MTT assay, PC 1×10^−8 to 1×10^−4 M, menatetrenone 1×10^−7 to 1×10^−4 M, culture 2 to 4 days, FIGS. 1A-1C), the survival rate result was “survival rate decreased in the presence menatetrenone depending on the quantity added”. Moreover, the “multiplication of human hepatocellular cancer cell lines” value in data set [3] (each substance alone) is listed as “demonstrated an inhibitory effect”.
